In patent US20170159101A1, “DRUG-RESISTANT P97 ATPASE MUTATIONS” (Cleave Biosciences, Inc., priority 2014, published 2017):

What was measured:
Assay type in all cases: cell-based, human
[1] = system: DLD-1 resistant cell line clone #64 (p97 N660N/S); assay: GI50 fold-change, resistant clone #64 vs parental; details: Clone #64, DLD-1, resistance generated with compound 4, A1979G/A / N660N/S; 72 hrs
Protocol: (§1) Dose titration of test compounds were conducted in Hct116, DLD-1, or LoVo cell lines. In brief, cells were plated in 384-well plates and a selected candidate drug compound was added in a 10-point 2-fold serial dilution.

[2] = system: Hct116 resistant cell line clone #152 (p97 T688I); assay: GI50 fold-change, resistant clone #152 vs parental; details: Clone #152, Hct116, resistance generated with compound 4, C2063T / T688I; 72 hrs
Protocol: (§2) Dose titration of test compounds were conducted in Hct116, DLD-1, or LoVo cell lines. In brief, cells were plated in 384-well plates and a selected candidate drug compound was added in a 10-point 2-fold serial dilution. […] Hct116 cells were plated at 50,000 cells per 15 cm dish and treated with GI50-GI90 doses of test compound for 2-4 weeks until individual colonies of cells were visible on the plate.

[3] = system: DLD-1 resistant cell line clone #87 (p97 S541P); assay: GI50 fold-change, resistant clone #87 vs parental; details: Clone #87, DLD-1, resistance generated with compound 4, T1621T/C / S541P; 72 hrs
Protocol: as §1

[4] = system: Hct116 resistant cell line clone #108 (p97 P646T); assay: GI50 fold-change, resistant clone #108 vs parental; details: Clone #108, Hct116, resistance generated with compound 4, C1936A / P646T; 72 hrs
Protocol: as §2

[5] = system: DLD-1 resistant cell line clone #61 (p97 I620I/L); assay: GI50 fold-change, resistant clone #61 vs parental; details: Clone #61, DLD-1, resistance generated with compound 4, T1859T/C / I620I/L; 72 hrs
Protocol: as §1

[6] = system: DLD-1 resistant cell line clone #83 (p97 N660N/D); assay: GI50 fold-change, resistant clone #83 vs parental; details: Clone #83, DLD-1, resistance generated with compound 4, A1978G/A / N660N/D; 72 hrs
Protocol: as §1

[7] = system: DLD-1 resistant cell line clone #58 (p97 D649D/N); assay: GI50 fold-change, resistant clone #58 vs parental; details: Clone #58, DLD-1, resistance generated with compound 4, G1945G/A / D649D/N; 72 hrs
Protocol: as §1

[8] = system: Hct116 resistant cell line clone #1 (p97 D649N); assay: GI50 fold-change, resistant clone #1 vs parental; details: Clone #1, Hct116, resistance generated with compound 2, G1945A / D649N; 72 hrs
Protocol: as §1

[9] = system: LoVo resistant cell line clone #221 (p97 V474V/A); assay: GI50 fold-change, resistant clone #221 vs parental; details: Clone #221, LoVo, resistance generated with compound 4, T1421C/T / V474V/A; 72 hrs
Protocol: as §2

[10] = system: Hct116 resistant cell line clone #6 (p97 A528T); assay: GI50 fold-change, resistant clone #6 vs parental; details: Clone #6, Hct116, resistance generated with compound 2, G1582 / A528T; 72 hrs
Protocol: as §1

[11] = system: Hct116 resistant cell line clone #25 (p97 P500T); assay: GI50 fold-change, resistant clone #25 vs parental; details: Clone #25, Hct116, resistance generated with compound 4, C1498A / P500T; 72 hrs
Protocol: as §1

[12] = system: Hct116 resistant cell line clone #117 (p97 L482I); assay: GI50 fold-change, resistant clone #117 vs parental; details: Clone #117, Hct116, resistance generated with compound 4, C1444A / L482I; 72 hrs
Protocol: as §1

[13] = system: Hct116 resistant cell line clone #42 (p97 P472A); assay: GI50 fold-change, resistant clone #42 vs parental; details: Clone #42, Hct116, resistance generated with compound 4, C1414G / P472A; 72 hrs
Protocol: as §1

[14] = system: Hct116 resistant cell line clone #139 (p97 P472S); assay: GI50 fold-change, resistant clone #139 vs parental; details: Clone #139, Hct116, resistance generated with compound 4, C1414T / P472S; 72 hrs
Protocol: as §1

[15] = system: DLD-1 resistant cell line clone #82 (p97 A569A/T); assay: GI50 fold-change, resistant clone #82 vs parental; details: Clone #82, DLD-1, resistance generated with compound 4, G1705G/A / A569A/T; 72 hrs
Protocol: as §1

[16] = system: Hct116 resistant cell line clone #45 (p97 F539I); assay: GI50 fold-change, resistant clone #45 vs parental; details: Clone #45, Hct116, resistance generated with compound 4, T1615A / F539I; 72 hrs
Protocol: as §1

[17] = system: Hct116 resistant cell line clone #30 (p97 F516L); assay: GI50 fold-change, resistant clone #30 vs parental; details: Clone #30, Hct116, resistance generated with compound 4, T1546C / F516L; 72 hrs
Protocol: as §1

Row | SMILES | Fold Change in GI50 Compared to Parental Cell Line [1] [fold] | Fold Change in GI50 Compared to Parental Cell Line [2] [fold] | Fold Change in GI50 Compared to Parental Cell Line [3] [fold] | Fold Change in GI50 Compared to Parental Cell Line [4] [fold] | Fold Change in GI50 Compared to Parental Cell Line [5] [fold] | Fold Change in GI50 Compared to Parental Cell Line [6] [fold] | Fold Change in GI50 Compared to Parental Cell Line [7] [fold] | Fold Change in GI50 Compared to Parental Cell Line [8] [fold] | Fold Change in GI50 Compared to Parental Cell Line [9] [fold] | Fold Change in GI50 Compared to Parental Cell Line [10] [fold] | Fold Change in GI50 Compared to Parental Cell Line [11] [fold] | Fold Change in GI50 Compared to Parental Cell Line [12] [fold] | Fold Change in GI50 Compared to Parental Cell Line [13] [fold] | Fold Change in GI50 Compared to Parental Cell Line [14] [fold] | Fold Change in GI50 Compared to Parental Cell Line [15] [fold] | Fold Change in GI50 Compared to Parental Cell Line [16] [fold] | Fold Change in GI50 Compared to Parental Cell Line [17] [fold]
1 | COc1nc2ccccc2n1-c1nc2c(c(NCc3ccccc3)n1)CCCC2 [Compound 2, N-benzyl-2-(2-methoxy-1H-1,3-benzodiazol-1-yl)-5,6,7,8-tetrahydroquinazolin-4-amine] | 0.6 | 2.1 | 1.3 | 1.3 | 1.1 | 2.6 | 1.4 | 4.5 | 2.2 | – | – | – | – | – | – | – | –
2 | Cc1cc2c(C(N)=O)cccc2n1-c1nc2c(c(NCc3ccccc3)n1)CNCC2 [Compound 3, 1-[4-(benzylamino)-5H,6H,7H,8H-pyrido[4,3-d]pyrimidin-2-yl]-2-methyl-1H-indole-4-carboxamide] | 1.2 | 40.2 | 34.6 | 1.6 | 1.0 | 2.4 | 2.0 | – | 4.1 | 13.4 | 2.2 | 4.4 | 7.0 | 4.2 | 4.9 | 6.9 | 10.0
